# Measurements as given in ChEMBL document CHEMBL1155726, “Seven new sesquiterpene glycosides from the root bark of Dictamnus dasycarpus” (J Nat Prod, 2001).
# Calls of active or inactive are those of the source. The calls are words filed in the database; no cut-off is given here.
# System: Splenocyte
# Assay: Immunomodulatory activity in mouse splenocyte assessed as stimulation of proliferation at 10 umole/L after 44 hrs by MTT assay in presence of ConA
# Format: functional, cell-based
smiles,measurement,value
CC(C)(O)[C@@H]1CC[C@]23CO[C@](C)(CC[C@@H]2O)[C@H]3[C@@H]1O[C@@H]1O[C@H](CO)[C@@H](O)[C@H](O)[C@H]1O,Activity,Active
